Assays:
[1] = Host cell cytotoxicity in the image-based assay (total host cells); details: rat, H9c2 rat cardiomyoblasts (infected with T. cruzi), 72 h treatment
Procedure: (§1) Tested compounds were dissolved and serially diluted in dimethylsulfoxide (DMSO) using a half-log dilution across six concentrations. Intermediate plates were prepared by diluting compounds 1:25 in DMEM (Dulbecco’s Modified Eagle Medium) with 10% FBS (Fetal Bovine Serum). The assay was based on [Fredo Naciuk et al. (2020)], with minor modifications. Briefly, T. cruzi trypomastigotes (from LLC-MK2 cultures, 6 days post-infection) were used to infect H9c2 rat cardiomyoblasts overnight (16–18 h) at MOI 1. After washing with PBS, cells were trypsinized and resuspended in DMEM at 2.3 × 10^4 cells/mL. Then, 65 μL per well was plated in 384-well plates and incubated for 24 h (37 °C, 5% CO2, >95% humidity). Subsequently, 7.5 μL of compound solution was added (final [DMSO] 0.4%). After 72 h of treatment, cells were fixed with 4% PFA and stained with Hoechst 33342 (4 μg/mL). Six images per well were acquired using the Operetta system (PerkinElmer) and analyzed with Columbus software to quantify infected cells (≥3 cytoplasmic parasite spots).

[2] = system: T. cruzi Dm28c strain intracellular form infecting H9c2 rat cardiomyoblasts; experiment: T. cruzi intracellular image-based assay; assay type: cell-based, Trypanosoma cruzi; details: for SI: Selectivity index; for EC50: host cells infected by T. cruzi amastigotes, 72 h treatment
Procedure: as §1

[3] = Metabolic stability in rat liver microsomes; assay type: in vitro ADME; details: for half-life at 1 μM / microsomal CLint at 1 μM: Sprague-Dawley, pH 7.4, rat liver microsomes; for half-life at 1 μM: 0.25 mg/mL, read-out: T1/2 rat; for microsomal CLint at 1 μM: read-out: CL int. mic.; for parent compound remaining: rat microsomes
Procedure: (§2) The in vitro metabolic stability of the compound was evaluated in pooled human liver microsomes (HLM, 20 mg/mL), Sprague-Dawley rat liver microsomes (RLM, 20 mg/mL), and CD-1 mouse liver microsomes (MLM, 20 mg/mL), all purchased from GIBCO (Thermo Fisher Scientific). NADPH regenerating system (GentestTM) was prepared in potassium phosphate buffer (100 mM, pH 7.4). […] The reaction was stopped by adding acetonitrile, followed by vortex homogenization, sonication for 5 min, and centrifugation at 10,000 g for 5 min at 4 °C. The supernatants were transferred to glass vials for LC-MS/MS analysis. The half-life was estimated based on the area under the curve (AUC) through regression analysis of the concentration decay over time. This calculation was performed using the following formula: t1/2=LN2/Kel
(§3) Where LN is the neperian logarithm, and K is the slope of the regression of the LN of AUC as a function of time. Then, the microsomal intrinsic clearance (CLint, mic) was calculated using the following equation: CLint.mic=LN2/t1/2 x VI/PM
(§4) Where V is the incubation volume (µL), and PM is the microsomal protein concentration (mg). This intrinsic clearance can be extrapolated to the whole liver (CLint,hep) using the following equation: CLint.hep=CLint.mic x ML x LB
(§5) ML is the microsomal yield, and LB is the liver weight (g) per kilogram of body weight.
(§6) To ensure the linearity of the elimination phase and to avoid the influence of points outside the log-linear range, the points deviated from the expected first-order kinetic profile were excluded. The supernatants were analyzed by UPLC-Xevo-TQ-XS from Waters. Chromatographic separation was performed on an Acquity UPLC BEH C18 column (2.1 × 100 mm, 1.7 µm particle size), maintained at 40 °C. The mobile phases were (A) water with 0.1% formic acid and (B) acetonitrile with 0.1% formic acid. […] The total run time was 5 min.

[4] = Stability in HBSS buffer; assay type: physicochemical; details: 37°C, 2 hours
Procedure: The compounds were evaluated for chemical stability in Hanks’ Balanced Salt Solution (HBSS) over a 2-hour incubation period at 37°C. Stock solutions prepared in DMSO were diluted in HBSS to the desired test concentration. Samples were collected at time zero and after 2 hours of incubation. The remaining concentration of each compound was quantified by HPLC-UV, with stability assessed by comparing the percentage of compound remaining after 2 hours relative to the initial concentration.

[5] = Metabolic stability in human liver microsomes; assay type: in vitro ADME; details: for half-life at 1 μM / microsomal CLint at 1 μM: pooled liver microsomes, pH 7.4, human liver microsomes; for half-life at 1 μM: 0.25 mg/mL, read-out: T1/2 human; for microsomal CLint at 1 μM: read-out: CL int. mic.; for parent compound remaining: human microsomes
Procedure: as §2, §3, §4, §5, §6

[6] = target: T. cruzi malic enzyme (TcME) (Trypanosoma cruzi, UniProt Q4DJ68); experiment: Malic enzyme (TcME) inhibition assay, diaphorase/resazurin coupled; assay type: biochemical; details: concentration necessary to inhibit 50% of T. cruzi Malic enzyme enzymatic activity
Sequence of T. cruzi malic enzyme (TcME) (Q4DJ68 entry or part of it): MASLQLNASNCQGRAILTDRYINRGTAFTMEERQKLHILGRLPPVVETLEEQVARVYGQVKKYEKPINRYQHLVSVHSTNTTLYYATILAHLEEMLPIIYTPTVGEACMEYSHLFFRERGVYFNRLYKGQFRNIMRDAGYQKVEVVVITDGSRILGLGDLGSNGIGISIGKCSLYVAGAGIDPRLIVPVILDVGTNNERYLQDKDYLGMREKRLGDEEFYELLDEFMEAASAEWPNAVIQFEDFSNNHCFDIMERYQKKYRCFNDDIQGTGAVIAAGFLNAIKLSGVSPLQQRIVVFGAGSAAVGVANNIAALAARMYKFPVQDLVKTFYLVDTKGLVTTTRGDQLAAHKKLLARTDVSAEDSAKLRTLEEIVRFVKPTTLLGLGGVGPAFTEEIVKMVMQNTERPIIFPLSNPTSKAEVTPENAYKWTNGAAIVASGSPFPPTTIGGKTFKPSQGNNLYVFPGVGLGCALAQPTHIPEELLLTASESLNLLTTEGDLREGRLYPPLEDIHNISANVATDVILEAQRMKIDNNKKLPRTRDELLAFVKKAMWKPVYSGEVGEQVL
Procedure: The TcME inhibition assay was performed as previously described, with minor modifications ([Mercaldi et al., 2021]). Briefly, a coupled assay with the enzyme diaphorase and resorufin fluorescence (Ex 545 nm/Em 600 nm) was recorded every 30 s for 6 min in a CLARIOstar plate reader (BMG LabTech). The final concentrations of reagents in the assay were: 0.02 mM NADP+, 0.4 mM L-aspartate, 0.45 nM TcMEc, 1 U/mL diaphorase, and 10 μM resazurin, all in 50 mM Tris-HCl buffer containing 50 mM NaCl and 2 mM MnCl2 at pH 7.5. The reaction was initiated by adding 1.32 mM L-malate.

[7] = Oral bioavailability (plasma concentration); assay type: in vivo, BALB/c mice; details: mice; for concentration at 1 h: female, BALB/c, mouse, plasma, 50 mg/kg, oral administration, after 1 h; for plasma concentration (in words): single oral dose 50 mg/kg, 5-60 min
Procedure: For the in vivo assays, female BALB/c mice, aged between 8 and 9 weeks and weighing approximately 25 g, were used. […] After preparation, three animals received a single oral dose of 50 mg/kg for each compound via gavage. The control group received only the vehicle. Blood samples were collected at 5-, 15-, 30-, 45-, and 60-minute post-administration using submandibular vein puncture, retro-orbital collection, and intracardiac (terminal) puncture. The mice were maintained under inhalation anesthesia with 3% isoflurane throughout the sampling period to ensure animal welfare. Blood samples were transferred to heparin-containing tubes and processed by centrifugation (4,000 rpm, 10 min, 4 °C) to separate the plasma. The obtained plasma was transferred to clean vials and stored at -80 °C until analysis. Compound quantification was performed using ultra-performance liquid chromatography coupled with tandem mass spectrometry (UPLC-MS/MS).

[8] = system: Caco-2 cells; experiment: Caco-2 permeability assay; assay type: in vitro ADME
Procedure: (§7) Caco-2 cells (2.5 × 10^5) were cultured on 12 mm diameter filters with DMEM-PEST medium in an incubator at 37 °C and 10% CO2. Monolayer formation was monitored through transepithelial electrical resistance (TEER). […] The assay was conducted under orbital shaking at 37 °C. […] Compound quantification was performed using the HPLC-UV method, following the previously adjusted chromatographic conditions and parameters. At the end of the experiment, monolayer integrity was confirmed by measuring TEER.

[9] = Caco-2 permeability assay; assay type: in vitro ADME; details: human, Caco-2; apical to basolateral, 0.1 mM, 120 min
Procedure: as §7

half-life at 1 μM [3]	microsomal CLint at 1 μM [3]	chemical stability in HBSS buffer (in words) [4]	half-life at 1 μM [5]	microsomal CLint at 1 μM [5]	IC50 [6]	concentration at 1 h [7]	plasma concentration (in words) [7]	Papp at 120 min, 0.1 mM [9]	parent compound remaining ([3]; 5 min)	parent compound remaining ([3]; 60 min)	parent compound remaining ([5]; 5 min)	parent compound remaining ([5]; 60 min)	SMILES	CC50 at 72 h [1]	SI [2]	Caco-2 permeability classification (in words) [8]	EC50 ([2]; Trypanosoma cruzi, H9c2, 72 h)	EC50 [2]
9 min	61 µL/min/mg	remained chemically stable	6 min	97 µL/min/mg	7 µM	≤ 1000 nM	between EC50 and EC90	20.7 ×10⁻⁶ cm/s					CC(C)Oc1ccc(NS(=O)(=O)c2cccc(NC(=O)c3cnccn3)c2)cc1 [AC-M110, N-(3-(N-(4-isopropoxyphenyl)sulfamoyl)phenyl)pyrazine-2-carboxamide]	63 µM	9092	approaching high permeability classification		
10 min	55 µL/min/mg	remained chemically stable	7 min	78 µL/min/mg	0.5 µM	≤ 1000 nM	between EC50 and EC90	9.71 ×10⁻⁶ cm/s	55%	about 1%	47%	about 1%	COc1ccc(NS(=O)(=O)c2cccc(NC(=O)c3cnccn3)c2)cc1 [AC-R008, N-(3-(N-(4-methoxyphenyl)sulfamoyl)phenyl)pyrazine-2-carboxamide]	99 µM	108	near the lower limit for moderate permeability	0.92 µM	< 1 µM
